# Data: publication PMC8219695 (Nature Communications, 2021)
# Several values for one entry are separate records, joined by “and”; a condition that tells them apart may be missing. Equal entries are not always repeated.
# Columns and labels:
# [1] = molecular target: T1, mDOR (Mus musculus, UniProt P32300); experiment: CAMYEL BRET cAMP agonist assay at mDOR; type: cell-based; settings: for Agonist activity of 7OH analogs at mDOR: single replicate values, Supplementary Figure 7B
# T1 construct: expressed in transfected cells
# T1 sequence (P32300 whole entry): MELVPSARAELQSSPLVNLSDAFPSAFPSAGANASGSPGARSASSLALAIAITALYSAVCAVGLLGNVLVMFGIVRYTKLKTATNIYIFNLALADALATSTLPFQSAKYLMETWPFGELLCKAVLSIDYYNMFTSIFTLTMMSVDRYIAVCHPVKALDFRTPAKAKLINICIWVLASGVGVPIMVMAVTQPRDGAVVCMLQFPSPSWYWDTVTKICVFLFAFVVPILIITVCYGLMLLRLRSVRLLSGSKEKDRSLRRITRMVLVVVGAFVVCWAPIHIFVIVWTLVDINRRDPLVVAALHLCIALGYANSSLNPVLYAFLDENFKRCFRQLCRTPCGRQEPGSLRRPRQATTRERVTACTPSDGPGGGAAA
# [2] = molecular target: T2, mMOR (Mus musculus, UniProt P42866); experiment: CAMYEL BRET cAMP agonist assay at mMOR; type: cell-based; settings: mMOR; for cAMP %: single replicates, source data Fig 6b, listed as C11-F-7OH (22)
# T2 construct: signal peptide (heterologous, not specified) (N); expressed in transfected cells; pcDNA3.1(+) construct made in house
# T2 sequence (P42866 whole entry): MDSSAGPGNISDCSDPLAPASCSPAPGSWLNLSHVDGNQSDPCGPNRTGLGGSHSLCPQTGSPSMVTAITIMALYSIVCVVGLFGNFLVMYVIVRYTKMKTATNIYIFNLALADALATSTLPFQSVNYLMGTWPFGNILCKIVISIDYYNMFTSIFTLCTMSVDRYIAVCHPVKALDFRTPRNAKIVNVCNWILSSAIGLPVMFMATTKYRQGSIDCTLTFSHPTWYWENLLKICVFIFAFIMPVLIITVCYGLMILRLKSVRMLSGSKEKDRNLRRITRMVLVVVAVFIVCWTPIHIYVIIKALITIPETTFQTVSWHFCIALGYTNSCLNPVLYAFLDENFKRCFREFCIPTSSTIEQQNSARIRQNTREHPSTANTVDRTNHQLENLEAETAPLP
# [3] = tested on: CD1 mice; experiment: Tail-flick antinociception in CD1 mice; type: in vivo, mouse; settings: for Tail flick (%MPE), average / Tail flick latency in secs, Av / Tail flick (%MPE) / Tail flick latency / Tail flick latency in secs, mean: sc; for Tail flick (%MPE), average / Tail flick latency in secs, Av: average of 11 animals; for Tail flick (%MPE) / Tail flick latency: individual animals; for Tail flick latency in secs, mean: mean of 8 animals
smiles,measurement,setting,value
"CC[C@@H]1CN2CC[C@@]3(O)C(=Nc4cc(F)cc(OC)c43)[C@@H]2C[C@@H]1/C(=C\OC)C(=O)OC [11-F-7OH (22), 11-Fluoro-7-hydroxymitragynine]",Agonist activity of 7OH analogs at mDOR,[1]; Log[drug] (M) -5,47.1654 and 47.1068 and 50.635 and 37.9412 and 42.0474 and 46.3733 and 28.2147 and 32.1025 and 39.5821
same,Agonist activity of 7OH analogs at mDOR,[1]; Log[drug] (M) -6,47.099 and 41.9872 and 38.3786 and 51.107 and 48.5979 and 35.3577 and 31.3142 and 12.8186 and 22.449
same,Agonist activity of 7OH analogs at mDOR,[1]; Log[drug] (M) -7,30.1688 and 32.9372 and 28.2956 and 32.0377 and 31.8373 and 22.4143 and 6.1677 and 13.5479 and 12.0733
same,Agonist activity of 7OH analogs at mDOR,[1]; Log[drug] (M) -8,13.6765 and -5.445 and -5.108 and 13.4452 and 4.719 and 1.33 and -3.9215 and 5.792
same,Agonist activity of 7OH analogs at mDOR,[1]; Log[drug] (M) -9,-4.727 and 10.4426 and 11.2028 and 10.7963 and -1.115 and -6.036 and 3.188 and 1.136 and -3.325
same,Agonist activity of 7OH analogs at mDOR,[1]; Log[drug] (M) -10,-4.225 and 3.531 and 0.6939 and 1.589 and -3.887 and 2.298 and 4.3674 and 7.155 and 10.722
same,Agonist activity of 7OH analogs at mDOR,[1]; Log[drug] (M) -11,12.0117 and 1.607 and 13.3008 and 5.9086 and 13.4698 and 3.259 and 9.679 and 6.216 and 9.4253
same,Agonist activity of 7OH analogs at mDOR,[1]; Log[drug] (M) -13,-0.8332 and 15.6965 and -5.824 and 1.284 and 2.644 and 6.574 and -5.56 and 1.8034 and 3.757
same,EC50,"[1]; mDOR cAMP BRET, read-out: EC50",102 nM
same,Emax,[1]; read-out: Emax,41%
same,cAMP %,[2]; Log[drug] (M) -5,18.6612% and 13.4113% and 8.551% and 30.7876% and 22.9326% and 28.8572% and 20.3955% and 21.355% and 24.4984%
same,cAMP %,[2]; Log[drug] (M) -6,25.4304% and 7.798% and 14.3775% and 23.1589% and 22.9335% and 14.5614% and 26.2834% and 10.6621% and 13.744%
same,cAMP %,[2]; Log[drug] (M) -7,4.791% and 10.9715% and 7.661% and 21.2718% and 20.4101% and 18.8827% and 13.0494% and 8.164% and 16.1975%
same,cAMP %,[2]; Log[drug] (M) -8,1.666% and 6.134% and 7.138% and 7.653% and 6.95% and 8.768% and 3.363% and -0.1101% and 16.7433%
same,cAMP %,[2]; Log[drug] (M) -9,0.8145% and -7.096% and 6.2815% and 3.889% and -6.162% and 2.273% and -4.16% and 0.06827% and 4.092%
same,cAMP %,[2]; Log[drug] (M) -10,13.6379% and 11.7751% and 16.0473% and 16.5566% and -2.169% and 7.345% and 0.7238% and 2.035% and 11.7782%
same,cAMP %,[2]; Log[drug] (M) -11,20.0905% and 12.8035% and 2.268% and 1.246% and -1.253% and 18.3526% and 6.666% and -0.8467% and -5.17%
same,cAMP %,"[2]; Log[drug] (M) -13, cAMP inhibition as % of DAMGO",13.7634% and 17.6649% and 9.384% and 11.7249% and -6.349% and 6.202% and -0.02358% and 4.732% and 0.04545%
same,Emax,[2]; maximal inhibitory effect on cAMP levels relative to DAMGO,21%
same,EC50,"[2]; n = 3, read-out: EC50",97 nM
same,duration of residual analgesic effect,"[3]; 5 mg/kg s.c., CD1 mice",at least 120 min
same,time of peak analgesic effect post injection,"[3]; 5 mg/kg s.c., CD1 mice",15 min
same,partial analgesic efficacy,"[3]; 5 mg/kg s.c., CD1 mice, tail-flick",< 40 % MPE
same,"Tail flick (%MPE), average","[3]; 5 mg/kg, 15 min",38 %MPE
same,"Tail flick latency in secs, Av","[3]; 5 mg/kg, 15 min",5.1 s
same,Tail flick (%MPE),"[3]; 5 mg/kg, 15 min",53 %MPE and 57 %MPE and 20 %MPE and 21 %MPE and 30 %MPE (2×) and 35 %MPE and 62 %MPE and 25 %MPE and 54 %MPE and 27 %MPE
same,Tail flick latency,"[3]; 5 mg/kg, 15 min",6.3 secs and 6.7 secs and 3.5 secs and 4.2 secs (2×) and 4.9 secs (2×) and 4.3 secs and 7.0 secs and 4.0 secs and 6.6 secs
same,"Tail flick (%MPE), average","[3]; 5 mg/kg, 30 min",32 %MPE
same,"Tail flick latency in secs, Av","[3]; 5 mg/kg, 30 min",4.7 s
same,Tail flick (%MPE),"[3]; 5 mg/kg, 30 min",15 %MPE and 100 %MPE and 37 %MPE and 11 %MPE and 14 %MPE and 21 %MPE and 19 %MPE and 56 %MPE and 32 %MPE and 4 %MPE and 38 %MPE
same,Tail flick latency,"[3]; 5 mg/kg, 30 min",3.4 secs (2×) and 10.0 secs and 4.9 secs and 3.8 secs and 3.6 secs (2×) and 6.4 secs and 4.6 secs and 2.9 secs and 5.1 secs
same,"Tail flick (%MPE), average","[3]; 5 mg/kg, 60 min",13 %MPE
same,"Tail flick latency in secs, Av","[3]; 5 mg/kg, 60 min",3.3 s
same,Tail flick (%MPE),"[3]; 5 mg/kg, 60 min",15 %MPE and 34 %MPE and 31 %MPE and -9 %MPE and -7.53 %MPE and 10 %MPE and 8 %MPE and 33 %MPE and 11 %MPE and 2.7 %MPE and 18 %MPE
same,Tail flick latency,"[3]; 5 mg/kg, 60 min",3.4 secs and 4.9 secs and 4.4 secs and 1.9 secs and 2.2 secs and 2.7 secs and 2.8 secs (2×) and 4.6 secs and 2.9 secs and 3.5 secs
same,"Tail flick (%MPE), average","[3]; 5 mg/kg, 120 min",15 %MPE
same,"Tail flick latency in secs, Av","[3]; 5 mg/kg, 120 min",3.4 s
same,Tail flick (%MPE),"[3]; 5 mg/kg, 120 min",38 %MPE and 44 %MPE and 49 %MPE and -4 %MPE and -12 %MPE and 6 %MPE (2×) and 3.8 %MPE and -1.23 %MPE and 9 %MPE and 22 %MPE
same,Tail flick latency,"[3]; 5 mg/kg, 120 min",5.2 secs and 5.7 secs and 5.9 secs and 2.3 secs (2×) and 1.8 secs (2×) and 2.4 secs and 2.5 secs and 3.3 secs and 3.8 secs
same,Tail flick (%MPE),"[3]; Fig 9b, 5 mg/kg",17.7 %MPE and 17.8 %MPE and 17.3 %MPE and 17.1 %MPE and 26.9 %MPE and 34.1 %MPE and 38.3 %MPE and 27.3 %MPE
same,Tail flick latency,"[3]; Fig 9b, 5 mg/kg",3.5 s and 4.0 s and 3.3 s and 3.7 s and 4.3 s and 4.6 s and 5.0 s and 4.4 s
same,"Tail flick latency in secs, mean","[3]; Fig 9b, 5 mg/kg",4.1 s
same,Tail flick (%MPE),"[3]; Fig 9b, 10 mg/kg",24.1 %MPE and 13.7 %MPE and 25.9 %MPE and 28.9 %MPE and 26.9 %MPE and 39.0 %MPE and 32.1 %MPE and 27.3 %MPE
same,Tail flick latency,"[3]; Fig 9b, 10 mg/kg",4.0 secs (2×) and 3.7 secs and 4.6 secs and 4.3 secs and 5.0 secs and 4.5 secs and 4.4 secs
same,"Tail flick latency in secs, mean","[3]; Fig 9b, 10 mg/kg",4.3 s
same,Tail flick (%MPE),"[3]; Fig 9b, 25 mg/kg",29.1 %MPE and 27.4 %MPE and 42.0 %MPE and 38.2 %MPE and 23.1 %MPE and 36.6 %MPE and 37.0 %MPE and 44.2 %MPE
same,Tail flick latency,"[3]; Fig 9b, 25 mg/kg",4.4 secs and 4.7 secs and 5.3 secs (2×) and 4.0 secs and 4.8 secs and 4.9 secs and 5.7 secs
same,"Tail flick latency in secs, mean","[3]; Fig 9b, 25 mg/kg",4.9 s
